Source: US12152016B2, “Aryl hydrocarbon receptor modulators and uses thereof” (Beth Israel Deaconess Medical Center, Inc., priority 2018, dated 2024)
Entries after “also recorded” stand apart in the source; their conditions may differ. Blank lines part the entries; values can stand above or below the compound they belong to.

How the values were obtained:
[1] = tested on: AHR-dependent transcription of the CYP1A1 gene; assay: CYP1A1 induction in mouse macrophages; format: cell-based
Protocol: (§1) Mouse macrophages were also used to test AHR-dependent transcription of the CYP1A1 gene in vivo. Finally, the activity of exemplary compounds of Formula (I) described herein was tested in the human […] cell line U937. The U937 cell line is derived from a patient with diffuse histiocytic lymphoma. Tables 2-4 summarize structure-activity relationship data collected for exemplary, non-limiting compounds of Formula (I) described herein.

[2] = Liver microsomal stability (LCMS/MS); format: in vitro ADME; settings: in the presence of liver microsomes
[3] = Plasma stability (LCMS/MS); format: in vitro ADME; settings: incubated in plasma
[4] = LC-MS/MS analysis of plasma after oral dosing of mice; format: in vivo, mouse; settings: LC-MS/MS of plasma samples
cyp1a1 [5] = assay: cyp1a1 expression by q-PCR in mouse Hepa-1c1c7 cells; format: cell-based
Protocol: (§2) RNA was extracted using TRIzol (Invitrogen) following manufacturer's instructions and 0.1 μg of RNA was converted to cDNA using a high capacity cDNA reverse transcription kit (Invitrogen). qPCR was performed on the Applied Biosystems 7900 using TaqMan® Universal PCR Master Mix (Life Technologies) with TaqMan® (Life Technologies) primers against cyp1a1 (Mm00487218_m1), AhR (Mm00478932_m1), IL-22 (Mm01226722_g1), Foxp3 (Mm00475162_m1), IL-10 (Mm01288386_m1), TNF-a (Mm00443258_m1), IFN-r (Mm01168134_m1). The fold increase from experimental groups to control was calculated using the delta-delta CT method with 18S (Mm00446186_m1) as an internal reference gene. In vitro and in vivo activation of the AhR singling pathway was confirmed by q-PCR characterization of cyp1a1. For in vitro induction, mouse Hepa-1c1c7 were cultured to confluence in 24 well plates in full DMEM followed by 24 hours incubation in tryptophan deficient media. Cells were treated with vehicle control (DMSO), ITE, compound 108, or compound 109 (10 nM-10 μM) for 8 hours in tryptophan deficient media. At the end of treatment, cells were lysed in TRIzol for RNA isolation. To monitor in vivo induction, (0.1-1000 μg) compound 109 was given per mouse via oral gavage in 100 μl of vehicle (1% HPMC, 1% polysorbate 80). After 12 hours, liver, colon, spleen and leukocytes from blood were collected and lysed in TRIzol (Invitrogen) for q-PCR analysis.

cyp1a1 [6] = assay: In vivo tissue cyp1a1 induction after oral gavage (PD profile); set-up: species or system mouse; settings: mice, oral gavage 0.1-1000 μg, 12 hours
Protocol: as §2, with “After 12 hours, liver, colon, spleen and leukocytes from blood were collected and lysed in TRIzol (Invitrogen) for q-PCR analysis.” left out

DSS induced colitis = DSS induced colitis in mice; format: in vivo, C57BL/6 mice; settings: 1 μg/day PO; day 11
Protocol: C57BL/6 (8-10 week, male) mice were administered drinking water supplemented with 3% (wt/vol) dextran sodium sulfate (DSS; MP Biomedicals) for 7 days followed by a 13 day recovery period with unsupplemented drinking water. Compound 109 or compound 108 were suspended in vehicle (1% HPMC and 1% polysorbate 80 in water) and given daily by oral gavage (1 ug/mouse in 100 uL), starting at day 0. Control mice were administered 100 μL vehicle. Body weight and disease activity index (DAI) were recorded daily. DAI was determined by combining scores of weight loss, stool consistency, blood in stool, activity, and appearance.^1 Scores were determined as follows: change in weight (0: <1%, 1: 1-10%, 2: 10-18%, 3: 18-20%); stool consistency (0: normal, 1: loose stools, 2: diarrhea); stool blood (0: negative, 1: trace blood, 2: bloody stool, 3: gross bleeding), activity (0: normal, 1: low activity, 2: hiding, 3: no response to gentle stimuli) and appearance (0: normal, 1: rigor, 2: hunched posture). On day 7 and day 11, mice were euthanized and colon were removed for length measurement, histology, RNA isolation, and lamina propria mononuclear cell (LPMC) extraction as detailed below.
Dissected colon were cut longitudinally and rolled using the Swiss roll method with the distal side in the center.^2,3 Colons were fixed overnight in 10% neutral buffered formalin, processed for paraffin embedding and sectioned at 5 μm thickness. To visualize and quantify the inflammatory response and crypt loss, hematoxylin and eosin staining (H&E) was performed. Briefly, sections were cleared with xylene, rehydrated through alcohol gradient, stained by hematoxylin, washed by acid and ammonium alcohol, rinsed in water and exposed to Eosin followed by dehydrating through graded alcohols and cleared in xylene. All sections were mounted using Permount (Fisher Scientific) and visualized using a BX41 microscope (Olympus). For histological scoring, 3 transverse sections of Swiss roll were chosen and 9 (100×) images were captured for each section. Images were analyzed for inflammation and crypt structure and scored by a blind observer as follows: inflammation (0: rare inflammatory cells in the lamina propria; 1: increased numbers of inflammatory cells in the lamina propria; 2: confluence of inflammatory cells extending in to the submucosa; 3: transmural extension of the inflammatory infiltrate.); crypt loss (0: none; 1: basal 1/3 damaged; 2: basal 2/3 damaged; 3: only surface epithelium intact; 4: entire crypt and epithelium lost). Inflammation and crypt loss were scored separately and multiplied by a factor of 1-4 to adjust for impacted area of tissue section (1: 0-25%; 2: 25.1-50% affected; 3: 50.1-75% affected; 4: >75% affected).^1,4 To examine goblet cell number, sections were stained by a commercial periodic acid-Schiff (PAS) and Alcian blue kit (Fisher Scientific). For quantification, 3 transverse sections of Swiss roll were chosen per colon and 5 random images at 200x were taken per section in the distal region of the colon. Goblet cell number was counted per image and normalized to colon length by a blind observer using image J.^5
Colonic epithelium and lamina propria cells were isolated as previously described.^6,7 Briefly, colons were dissected and washed with HBSS to remove fecal contents. Colon were opened longitudinally and cut into 2 cm segments. […]

[7] = biological target: T1, aryl hydrocarbon receptor (AHR) (Homo sapiens, UniProt P35869); assay: XRE-driven luciferase reporter assay, human HepG2; settings: for EC50: XRE luciferase EC50, Human HepG2, least square curve fitting, >10,000 = does not reach 50% of Emax of ITE at 10 μM (highest concentration tested)
T1 sequence (P35869 11-848): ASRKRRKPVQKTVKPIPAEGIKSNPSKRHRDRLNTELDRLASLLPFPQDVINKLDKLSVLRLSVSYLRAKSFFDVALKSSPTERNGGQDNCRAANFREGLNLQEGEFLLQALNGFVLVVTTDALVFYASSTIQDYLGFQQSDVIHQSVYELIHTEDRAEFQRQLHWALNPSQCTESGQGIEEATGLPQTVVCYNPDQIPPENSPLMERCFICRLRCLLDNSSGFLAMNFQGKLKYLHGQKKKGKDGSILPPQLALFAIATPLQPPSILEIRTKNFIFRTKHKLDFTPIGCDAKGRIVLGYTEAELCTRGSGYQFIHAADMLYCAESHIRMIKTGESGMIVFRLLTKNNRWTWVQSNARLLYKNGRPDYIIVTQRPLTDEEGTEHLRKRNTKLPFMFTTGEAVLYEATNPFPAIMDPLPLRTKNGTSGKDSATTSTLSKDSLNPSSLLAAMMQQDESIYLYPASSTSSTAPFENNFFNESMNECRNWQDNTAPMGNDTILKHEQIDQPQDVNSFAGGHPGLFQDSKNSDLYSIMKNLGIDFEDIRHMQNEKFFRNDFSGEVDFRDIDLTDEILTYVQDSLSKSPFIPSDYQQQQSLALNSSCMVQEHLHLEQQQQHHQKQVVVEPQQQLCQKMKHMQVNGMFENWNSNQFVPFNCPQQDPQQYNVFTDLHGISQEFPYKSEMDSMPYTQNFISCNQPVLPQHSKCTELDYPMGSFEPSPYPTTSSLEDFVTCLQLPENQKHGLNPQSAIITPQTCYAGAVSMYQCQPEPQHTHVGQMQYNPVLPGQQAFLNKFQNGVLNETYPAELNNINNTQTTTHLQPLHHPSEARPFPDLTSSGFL
Protocol: The Human HepG2 cell line is a human liver cancer cell line, and provide a relevant in vitro AHR activity model. These Hep2G cells have been modified to stably express an AHR-responsive (XRE) firefly luciferase reporter gene to give Hep2G-XRE cells. The expression of luciferase should primarily reflect AHR-dependent transcription controlled by XRE.
Transfected cells were treated with AhR agonist (10^−5-10^−12) for 4.5 h in full medium. Cells were lysed and luciferase was activated using the Luciferase Assay System (Promega). Luminescence signals were measured with a FluroStar Omega microplate reader. Luminescence signals of compound treated groups were normalized to vehicle (DMSO) treated control and plotted as concentration dependent fold changes.

[8] = biological target: T2, aryl hydrocarbon receptor (AHR) (Mus musculus, UniProt P30561); assay: XRE-driven luciferase reporter assay, mouse Hepa1c1c7; format: cell-based
T2 construct: Transfection was performed with 150 ng XRE-luciferase plasmid (Promega); endogenous in cells; host or cells: Hepa-1c1c7 (mouse hepatoma cell line)
Protocol: Human HepG2 or mouse Hepa-1c1c7 cells were seeded in 96 well opaque plates at 75,000 cells per well in full medium (DMEM+10% FBS) for 24 hours. Transfection was performed with 150 ng XRE-luciferase plasmid (Promega) with 4:1 Fugene to DNA ratio for 18 hours in Opti-MEM. Transfected cells were treated with AhR agonist (10^−5-10^−12) for 4.5 h in full medium. Cells were lysed and luciferase was activated using the Luciferase Assay System (Promega). Luminescence signals were measured with a FluroStar Omega microplate reader. Luminescence signals of compound treated groups were normalized to vehicle (DMSO) treated control and plotted as concentration dependent fold changes.

[9] = tested on: AHR-dependent transcription of the CYP1A1 gene; assay: CYP1A1 induction in human U937 cells; format: cell-based; settings: Human U937, 1 μM
Protocol: as §1

AhR [10] = biological target: T3, AhR (Mus musculus, UniProt P30561); assay: AhR nuclear translocation assay, mouse Hepa-1c1c7; format: cell-based; settings: mouse Hepa-1c1c7, 10 μM, 90 minutes
T3 construct: endogenous in cells; host or cells: Hepa-1c1c7 (mouse hepatoma cell line)
Protocol: (§3) Mouse Hepa-1c1c7 or human HepG2 cells were seeded in 8 well chamber slides followed by 24 hours incubation in tryptophan deficient media (HBSS with Ca^2+ and Mg^2+, 10% heat inactivated FBS, 1× non-essential amino acids, 1× sodium pyruvate, 4.5 g/L glucose). Cells were treated with vehicle control (DMSO) or 10 μM ITE, compound 108, or compound 109 for 90 minutes in tryptophan deficient media. Following treatment, cells were fixed in 4% formaldehyde and processed according to standard immunofluorescence staining protocol. Primary anti-AhR antibody was applied at 1:100 dilution (Enzo, BML-SA210) and Alexa488 conjugated secondary antibody was applied at 1:500 dilution (Cell Signaling, 4412S). Actin was stained using Alexa 568 conjugated Phalloidin (Fisher). Samples were mounted in anti-fade mounting medium supplemented with DAPI for nuclear staining and imaged with confocal microscopy (Leica SP5×MP, 63× oil lens).

AhR [11] = biological target: T4, AhR (Homo sapiens, UniProt P35869); assay: AhR nuclear translocation assay, human HepG2; format: cell-based; settings: human HepG2, 10 μM, 90 minutes
T4 construct: endogenous in cells; host or cells: HepG2 (human liver cancer cell line)
T4 sequence (P35869 11-848): T1 sequence (P35869 11-848)
Protocol: as §3

[12] = within 8 h; cited from earlier work
[13] = cited from earlier work

T3 sequence (P30561 10-805 limits assumed): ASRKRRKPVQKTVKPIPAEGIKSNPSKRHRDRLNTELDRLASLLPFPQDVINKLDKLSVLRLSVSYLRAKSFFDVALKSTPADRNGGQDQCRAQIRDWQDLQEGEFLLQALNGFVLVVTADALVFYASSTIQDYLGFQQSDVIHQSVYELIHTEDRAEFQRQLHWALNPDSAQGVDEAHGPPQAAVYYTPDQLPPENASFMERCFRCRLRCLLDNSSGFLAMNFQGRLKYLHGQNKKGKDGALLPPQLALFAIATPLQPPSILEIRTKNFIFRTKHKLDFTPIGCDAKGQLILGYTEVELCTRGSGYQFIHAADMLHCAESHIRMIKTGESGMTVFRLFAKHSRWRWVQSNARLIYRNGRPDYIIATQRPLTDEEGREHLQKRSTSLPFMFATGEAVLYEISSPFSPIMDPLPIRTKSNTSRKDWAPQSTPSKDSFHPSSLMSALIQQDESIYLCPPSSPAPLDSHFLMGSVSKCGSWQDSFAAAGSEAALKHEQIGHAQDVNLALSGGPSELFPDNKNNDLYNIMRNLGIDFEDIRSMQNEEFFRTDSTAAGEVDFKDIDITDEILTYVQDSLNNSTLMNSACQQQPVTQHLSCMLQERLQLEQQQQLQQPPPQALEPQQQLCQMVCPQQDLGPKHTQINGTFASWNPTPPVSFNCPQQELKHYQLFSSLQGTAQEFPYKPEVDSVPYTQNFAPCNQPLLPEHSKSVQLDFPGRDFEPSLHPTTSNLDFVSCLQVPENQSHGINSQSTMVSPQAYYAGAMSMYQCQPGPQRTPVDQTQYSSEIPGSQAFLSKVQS
T3 sequence (P53762 whole entry partner): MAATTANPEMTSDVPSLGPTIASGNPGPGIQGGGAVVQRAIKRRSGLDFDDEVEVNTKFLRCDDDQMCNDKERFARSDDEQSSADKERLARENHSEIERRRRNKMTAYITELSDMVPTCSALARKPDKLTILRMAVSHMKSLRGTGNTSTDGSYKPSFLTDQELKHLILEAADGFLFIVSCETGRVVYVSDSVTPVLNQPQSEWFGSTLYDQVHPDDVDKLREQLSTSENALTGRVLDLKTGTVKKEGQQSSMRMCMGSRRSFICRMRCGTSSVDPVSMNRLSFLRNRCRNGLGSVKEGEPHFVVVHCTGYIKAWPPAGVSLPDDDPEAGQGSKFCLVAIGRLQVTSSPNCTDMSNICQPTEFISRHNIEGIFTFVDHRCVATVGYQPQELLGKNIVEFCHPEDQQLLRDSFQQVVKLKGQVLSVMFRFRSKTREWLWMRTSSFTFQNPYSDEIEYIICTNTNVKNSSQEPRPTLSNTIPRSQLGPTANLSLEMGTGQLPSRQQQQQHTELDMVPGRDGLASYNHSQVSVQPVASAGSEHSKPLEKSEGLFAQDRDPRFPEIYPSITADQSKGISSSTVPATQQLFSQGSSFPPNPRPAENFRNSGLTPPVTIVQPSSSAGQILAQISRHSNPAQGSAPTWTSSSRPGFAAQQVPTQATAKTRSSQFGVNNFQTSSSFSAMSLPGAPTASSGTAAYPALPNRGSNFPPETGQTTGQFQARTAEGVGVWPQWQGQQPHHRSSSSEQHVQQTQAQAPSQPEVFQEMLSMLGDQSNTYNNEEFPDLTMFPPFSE
T2 sequence (P30561 10-805 limits assumed): as the sequence (P30561 10-805 limits assumed) above
T2 sequence (P53762 whole entry partner): as the sequence (P53762 whole entry partner) above

CYP1A1 induction (% of ITE ± SEM) ([1]; 50 nM): 143 ± 90 % of ITE
CYP1A1 induction (% of ITE ± SEM) ([1]; 5 μM): 88 ± 38 % of ITE
liver microsomal stability [2]: highly unstable
plasma stability [3]: highly unstable
Compound: COC(=O)c1cccc(C(=O)c2c[nH]c3ccccc23)n1 [Compound 10, methyl 6-(1H-indole-3-carbonyl)pyridine-2-carboxylate]
species found in plasma after oral dosing [4]: only revealed the presence of the much less active carboxylic acid derivative

CYP1A1 induction (% of ITE ± SEM) ([1]; 50 nM): 124 ± 5 % of ITE
CYP1A1 induction (% of ITE ± SEM) ([1]; 5 μM): 90 ± 17 % of ITE
EC50 [7]: 2.3 nM
Compound: O=C(c1cccc(C(F)(F)F)n1)c1c[nH]c2ccccc12 [Compound 109, 1H-indol-3-yl-[6-(trifluoromethyl)-2-pyridyl]methanone]
cyp1a1 expression relative to ITE and compound 108 (cyp1a1 [5]; mouse Hepa-1c1c7, 10 nM): significantly increased cyp1a1 expression
cyp1a1 expression (qPCR) (cyp1a1 [5]; mouse Hepa-1c1c7, 10 nM-10 μM, 8 hours): induced AhR-dependent cyp1a1 expression; also recorded: dose dependent induction of cyp1a1 expression
cyp1a1 induction in liver and colon tissue (cyp1a1 [6]): induced dose-dependent cyp1a1; also recorded: Robust, dose-dependent cyp1a1 induction
cyp1a1 induction in spleen and blood (WBC) (cyp1a1 [6]): limited cyp1a1 induction was observed in spleen; also recorded: cyp1a1 regulation only at the highest administered doses
colon IL-22 expression, upregulation (DSS induced colitis): 10 fold

EC50 [8]: 30 nM
XRE luciferase Emax (fold) [8]: 79 fold
CYP1A1 induction (% of ITE ± SEM) ([1]; 50 nM): 100 % of ITE
CYP1A1 induction (% of ITE ± SEM) ([1]; 5 μM): 100 % of ITE
CYP1A1 induction (% of ITE ± SEM) [9]: 100 % of ITE
liver microsomal stability [2]: highly unstable
plasma stability [3]: highly unstable
XRE luciferase Emax (fold) ([7]; Human HepG2, fold over vehicle): 63 fold
EC50 [7]: 5.3 nM
Compound: COC(=O)c1csc(C(=O)c2c[nH]c3ccccc23)n1 [ITE, 2-(1H-indol-3-ylcarbonyl)-4-thiazolecarboxylic acid methyl ester, reference compound]
AhR nuclear translocation (AhR [10]): localized in the nucleus; also recorded: rapid nuclear enrichment of AhR
AhR nuclear translocation (AhR [11]): localized in the nucleus; also recorded: rapid nuclear enrichment of AhR
ITE inactivated in cell culture [12]: 75%

Compound: Clc1cc2c(cc1Cl)Oc1cc(Cl)c(Cl)cc1O2 [TCDD, 2,3,7,8-tetrachlorodibenzo-p-dioxin]
half-life [13]: 2,840 days
